According to ChEMBL document CHEMBL1201862, “PubChem BioAssay data set” (2004):
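Assay format: 96-well plates, 48-hour exposure. Abbreviation: GI50, concentration required for 50% inhibition of growth.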 Active and inactive are the calls of the source. Cut-off read from the data, not from the text of the source: active = GI50 up to about 1.1 µM and inactive = higher.

Tests used:
Assay in all cases: NCI-60 cell line screen, 48 h
UACC-62 = tested on: UACC-62
HL-60 = tested on: HL-60
NCI-H522 = tested on: NCI-H522
CCRF-CEM = tested on: CCRF-CEM
HOP-62 = tested on: HOP-62
MOLT-4 = tested on: MOLT-4
HCT-116 = tested on: HCT-116
RXF 631 = tested on: RXF 631
OVCAR-5 = tested on: OVCAR-5
DMS-273 = tested on: DMS-273
A549 = tested on: A549
K562 = tested on: K562
IGROV-1 = tested on: IGROV-1
OVCAR-8 = tested on: OVCAR-8
OVCAR-4 = tested on: OVCAR-4
SK-MEL-5 = tested on: SK-MEL-5
HT-29 = tested on: HT-29
NCI-H23 = tested on: NCI-H23
M19-MEL = tested on: M19-MEL
TK-10 = tested on: TK-10
SK-MEL-28 = tested on: SK-MEL-28
LOX IMVI = tested on: LOX IMVI
HOP-18 = tested on: HOP-18
COLO 205 = tested on: COLO 205
NCI-H226 = tested on: NCI-H226
RXF 393 = tested on: RXF 393
SK-OV-3 = tested on: SK-OV-3
SNB-19 = tested on: SNB-19
DLD-1 = tested on: DLD-1
OVCAR-3 = tested on: OVCAR-3
CAKI-1 = tested on: CAKI-1
RPMI-8226 = tested on: RPMI-8226
SW-620 = tested on: SW-620
LXFL 529 = tested on: LXFL 529
A498 = tested on: A498
SR = tested on: SR
EKVX = tested on: EKVX
DMS-114 = tested on: DMS-114
HOP-92 = tested on: HOP-92
M14 = tested on: M14
786-0 = tested on: 786-0
HCC 2998 = tested on: HCC 2998
SNB-78 = tested on: SNB-78
HCT-15 = tested on: HCT-15
SF-539 = tested on: SF-539
KM-20L2 = tested on: KM-20L2
SF-295 = tested on: SF-295
UACC-257 = tested on: UACC-257
XF498 = tested on: XF498
ACHN = tested on: ACHN
KM12 = tested on: KM12
SNB-75 = tested on: SNB-75
Malme-3M = tested on: Malme-3M
SK-MEL-2 = tested on: SK-MEL-2
UO-31 = tested on: UO-31
SF-268 = tested on: SF-268
U-251 = tested on: U-251
SN12C = tested on: SN12C
NCI-H460 = tested on: NCI-H460
PC-3 = tested on: PC-3
DU-145 = tested on: DU-145
MDA-N = tested on: MDA-N
Hs-578T = tested on: Hs-578T
BT-549 = tested on: BT-549
MDA-MB-231 = tested on: MDA-MB-231
MCF7 = tested on: MCF7
MDA-MB-435 = tested on: MDA-MB-435
NCI/ADR-RES = tested on: NCI/ADR-RES

SMILES: CC(C)NC(=O)CCN(C(=O)O)S(=O)(=O)c1ccc(NC(=O)c2ccccc2)cc1
- GI50 (UACC-62): > 45500 nM (inactive)
- GI50 (HL-60): > 48800 nM (inactive)
- GI50 (NCI-H522): > 100000 nM (inactive)
- GI50 (CCRF-CEM): > 43900 nM (inactive)
- GI50 (HOP-62): > 100000 nM (inactive)
- GI50 (MOLT-4): > 41200 nM (inactive)
- GI50 (HCT-116): > 39700 nM (inactive)
- GI50 (RXF 631): > 100000 nM (inactive)
- GI50 (OVCAR-5): > 100000 nM (inactive)
- GI50 (DMS-273): > 42700 nM (inactive)
- GI50 (A549): > 50100 nM (inactive)
- GI50 (K562): > 43700 nM (inactive)
- GI50 (IGROV-1): > 100000 nM (inactive)
- GI50 (OVCAR-8): > 54500 nM (inactive)
- GI50 (OVCAR-4): > 100000 nM (inactive)
- GI50 (SK-MEL-5): > 100000 nM (inactive)
- GI50 (HT-29): > 58100 nM (inactive)
- GI50 (NCI-H23): > 100000 nM (inactive)
- GI50 (M19-MEL): > 53300 nM (inactive)
- GI50 (TK-10): > 100000 nM (inactive)
- GI50 (SK-MEL-28): > 100000 nM (inactive)
- GI50 (LOX IMVI): 39900 nM (inactive)
- GI50 (HOP-18): > 100000 nM (inactive)
- GI50 (COLO 205): > 40600 nM (inactive)
- GI50 (NCI-H226): > 100000 nM (inactive)
- GI50 (RXF 393): > 100000 nM (inactive)
- GI50 (SK-OV-3): > 100000 nM (inactive)
- GI50 (SNB-19): > 100000 nM (inactive)
- GI50 (DLD-1): > 41600 nM (inactive)
- GI50 (OVCAR-3): > 100000 nM (inactive)
- GI50 (CAKI-1): > 100000 nM (inactive)
- GI50 (RPMI-8226): 34800 nM (inactive)
- GI50 (SW-620): 27700 nM (inactive)
- GI50 (LXFL 529): > 93800 nM (inactive)
- GI50 (A498): > 100000 nM (inactive)
- GI50 (SR): > 52800 nM (inactive)
- GI50 (EKVX): > 100000 nM (inactive)
- GI50 (DMS-114): > 39400 nM (inactive)
- GI50 (HOP-92): > 100000 nM (inactive)
- GI50 (M14): > 100000 nM (inactive)
- GI50 (786-0): > 79600 nM (inactive)
- GI50 (HCC 2998): > 100000 nM (inactive)
- GI50 (SNB-78): > 100000 nM (inactive)
- GI50 (HCT-15): > 42200 nM
- GI50 (SF-539): 24600 nM (inactive)
- GI50 (KM-20L2): > 100000 nM (inactive)
- GI50 (SF-295): > 100000 nM (inactive)
- GI50 (UACC-257): > 51900 nM (inactive)
- GI50 (XF498): > 100000 nM (inactive)
- GI50 (ACHN): > 81300 nM (inactive)
- GI50 (KM12): > 65600 nM (inactive)
- GI50 (SNB-75): > 100000 nM (inactive)
- GI50 (Malme-3M): > 100000 nM (inactive)
- GI50 (SK-MEL-2): > 100000 nM (inactive)
- GI50 (UO-31): > 100000 nM (inactive)
- GI50 (SF-268): > 54500 nM (inactive)
- GI50 (U-251): 15600 nM (inactive)
- GI50 (SN12C): > 100000 nM (inactive)
- GI50 (NCI-H460): > 43200 nM (inactive)

SMILES: CCCC(O)[C@@]1(CC)CC(C)C(O)(C2(C)C[C@H](C)[C@@H](C(CC)C(=O)C(C)[C@@H](O)[C@H](C)C3OC(O)(C(CC)C(=O)O)[C@@H](C)C(O)C3CC)O2)O1 (some centres not stated)
- GI50 (UACC-62): 923 nM (active)
- GI50 (PC-3): 72.3 nM (active)
- GI50 (DU-145): 88.5 nM (active)
- GI50 (HL-60): 22.8 nM (active)
- GI50 (NCI-H522): 21.1 nM (active)
- GI50 (CCRF-CEM): 32.4 nM (active)
- GI50 (HOP-62): 369 nM (active)
- GI50 (MOLT-4): 449 nM (active)
- GI50 (HCT-116): 187 nM (active)
- GI50 (RXF 631): < 33.3 nM (active)
- GI50 (MDA-N): 414 nM (active)
- GI50 (OVCAR-5): 1510 nM (inactive)
- GI50 (DMS-273): 290 nM (active)
- GI50 (A549): 123 nM (active)
- GI50 (K562): 95.5 nM (active)
- GI50 (IGROV-1): 1240 nM (inactive)
- GI50 (OVCAR-8): 444 nM (active)
- GI50 (OVCAR-4): 594 nM (active)
- GI50 (SK-MEL-5): 219 nM (active)
- GI50 (HT-29): 557 nM (active)
- GI50 (NCI-H23): 129 nM (active)
- GI50 (M19-MEL): 643 nM (active)
- GI50 (TK-10): 527 nM (active)
- GI50 (SK-MEL-28): 490 nM (active)
- GI50 (LOX IMVI): 190 nM (active)
- GI50 (HOP-18): 8590 nM (inactive)
- GI50 (COLO 205): 123 nM (active)
- GI50 (NCI-H226): 1100 nM (active)
- GI50 (Hs-578T): 267 nM (active)
- GI50 (BT-549): 51.2 nM (active)
- GI50 (RXF 393): 86.3 nM (active)
- GI50 (SK-OV-3): 2150 nM (inactive)
- GI50 (SNB-19): 279 nM (active)
- GI50 (DLD-1): 841 nM (active)
- GI50 (OVCAR-3): 73.3 nM (active)
- GI50 (CAKI-1): 486 nM (active)
- GI50 (RPMI-8226): 98.9 nM (active)
- GI50 (MDA-MB-231): 492 nM (active)
- GI50 (SW-620): 776 nM (active)
- GI50 (LXFL 529): 594 nM (active)
- GI50 (A498): 412 nM (active)
- GI50 (SR): < 10 nM (active)
- GI50 (EKVX): 395 nM (active)
- GI50 (DMS-114): 27.9 nM (active)
- GI50 (HOP-92): 300 nM (active)
- GI50 (M14): 557 nM (active)
- GI50 (786-0): 414 nM (active)
- GI50 (HCC 2998): 89.7 nM (active)
- GI50 (SNB-78): 2760 nM (inactive)
- GI50 (HCT-15): 1160 nM
- GI50 (SF-539): 56 nM (active)
- GI50 (KM-20L2): 276 nM (active)
- GI50 (SF-295): 753 nM (active)
- GI50 (MCF7): 461 nM (active)
- GI50 (UACC-257): 138 nM (active)
- GI50 (MDA-MB-435): 151 nM (active)
- GI50 (XF498): 1190 nM (inactive)
- GI50 (ACHN): 521 nM (active)
- GI50 (KM12): 451 nM (active)
- GI50 (SNB-75): 61.1 nM (active)
- GI50 (Malme-3M): 98.2 nM (active)
- GI50 (NCI/ADR-RES): 79.2 nM (active)
- GI50 (SK-MEL-2): 531 nM (active)
- GI50 (UO-31): 1010 nM (active)
- GI50 (SF-268): 284 nM (active)
- GI50 (U-251): 184 nM (active)
- GI50 (SN12C): 120 nM (active)
- GI50 (NCI-H460): 191 nM (active)
